# Assay results taken from patent publication US20050124690A1, “Pharmaceutical composition for the treatment of seborrhea containing 4-hydroxy-5-methoxy-4-[2-methyl-3(3-methyl-2-butenyl)-2-oxiranyl]-1-oxaspiro[2,5]octan-6-one” (priority 2002, published 2005).
# Assays:
# Pityrosporum ovale [1] = test: Minimum inhibition concentration (MIC) on Sabouraud's dextrose solid medium; assay type: cell-based; settings: Malassezia furfur; solid medium with 1% corn oil and 0.1% Tween-80; 30° C., 3 to 5 days; naked eye
# Procedure: For use in this test, P. ovale was cultured in Sabouraud's dextrose solid medium containing 1% corn oil and 0.1% Tween-80 at 30° C. for 2 days. After Sabouraud's dextrose solid medium containing 1% corn oil and 0.1% Tween-80 was aliquotted onto 6 cm plane plates, 4-hydroxy-5-methoxy-4-[2-methyl-3-(3-methyl-2-butenyl)-2-oxiranyl]-1-oxaspiro[2,5]octan-6-one was added in various concentration. When the medium was hardened, 150 μl of the cultured P. ovale was smeared onto the medium, followed by incubation at 30° C. for 3 to 5 days. Observing with naked eye, a minimum concentration capable of inhibiting the growth of the fungus was determined as MIC (Minimum Inhibition Concentration).
# MIC versus P. ovale of 4-hydroxy-5-methoxy-4-[2-methyl-3-(3-methyl-2-butenyl)-2-oxiranyl]-1-oxaspiro[2,5]octan-6-one is given in Table 1, below.
# [2] = test system: four-week old female rats; test: Acute dermal toxicity test; assay type: in vivo; settings: 4000 mg/kg applied to about 10% of body surface area of shaved rats; observation for 15 days
# Procedure: 4-hydroxy-5-methoxy-4-[2-methyl-3-(3-methyl-2-butenyl)-2-oxiranyl]-1-oxaspiro[2,5]octan-6-one, which was isolated from the culture filtrate and then purified, was tested for acute dermal toxicity using four-week old female rats, according to the standards provided by the Korean Food & Drug Administration. After the rats were shaved, 4000 mg/kg (body weight) of the compound was uniformly applied to about 10% of body surface area of rats.
# Pityrosporum ovale [3] = test: Paper disc diffusion test for antifungal activity; assay type: cell-based; settings: 45 μl of 0.1% acetone solution on paper disc; 30° C., 3 days
# Procedure: A paper disc diffusion method was used to investigate antifungal activity against a fungus, Pityrosporum ovale. Sabouraud's dextrose solid medium containing 1% of corn oil and 0.1% Tween-80 was aliquotted onto 87 mm plane plates, and allowed to harden. In order to examine antifungal activity against P. ovale, […] of P. ovale cultured in Sabouraud's dextrose solid medium at 30° C. for 2 days was smeared onto the plates, and then dried. 45 μl of an acetone solution containing 0.1% of 4-hydroxy-5-methoxy-4-[2-methyl-3-(3-methyl-2-butenyl)-2-oxiranyl]-1-oxaspiro[2,5]octan-6-one was aliquated onto paper discs, and, after completely evaporating off the acetone, put onto the P. ovale-smeared medium. Plates not treated with 4-hydroxy-5-methoxy-4-[2-methyl-3-(3-methyl-2-butenyl)-2-oxiranyl]-1-oxaspiro[2,5]octan-6-one were used as controls. Thereafter, incubation was carried out at 30° C. for 3 days, and it was observed whether a growth inhibition area formed around the discs or not.
structure (smiles),measurement,setting,value
"COC1C(=O)CCC2(CO2)C1(O)C1(C)OC1CC=C(C)C (stereo not drawn) [4-hydroxy-5-methoxy-4-[2-methyl-3-(3-methyl-2-butenyl)-2-oxiranyl]-1-oxaspiro[2,5]octan-6-one]",MIC,Pityrosporum ovale [1],< 2 µg/mL
same,"irritation, such as erythema or crusting",[2],not detected irritation
same,antifungal activity against P. ovale (growth inhibition area around the discs),Pityrosporum ovale [3],found to have antifungal activity
